{"source": "patent US20220184147A1", "about": "“BACTERIAL ENZYMATIC CONVERSION OF ANTHRACYCLINE CHEMOTHERAPEUTICS TO REDUCE TOXICITY AND PROMOTE DIVERSITY AMONG THE INTESTINAL MICROBIOTA” (Northwestem University, priority 2019, published 2022)", "key": {"Escherichia coli [1]": {"tested_on": "Escherichia coli", "assay": "Sensitivity or resistance of monoculture growth to Dox", "format": "cell-based", "conditions": "E. coli", "excerpt": "(§1) The impacts of doxorubicin on a model community of gut bacteria was investigated in vitro in anaerobic batch culture. The synthetic community was composed of specific members predicted by genomic analysis to be sensitive to the therapeutic (i.e., Clostridium innocuum, Lactobacillus sp.), resistant via putative biotransformation (i.e., Escherichia coli, Klebsiella pneumoniae), or resistant via putative efflux (i.e., Enterococcus faecalis). Bacterial growth was monitored in monocultures by measuring OD600 and standard plate counts, and in mixed cultures by strain-targeted qPCR. Doxorubicin concentration was detected via absorbance assay.\n(§2) The effects of Dox on gut-associated bacteria then were investigated in vitro in monoculture and in a synthetic community. […] Bacteria were identified and quantified after culture and treatment using qPCR.\n(§3) (See FIGS. 4-8). […] (See FIGS. 4 and 5, respectively)."}, "Enterococcus faecalis [2]": {"tested_on": "Enterococcus faecalis", "assay": "Sensitivity or resistance of monoculture growth to Dox", "format": "cell-based", "conditions": "E. faecalis", "excerpt": "as §1, §2, §3"}, "Klebsiella pneumoniae [3]": {"tested_on": "Klebsiella pneumoniae", "assay": "Sensitivity or resistance of monoculture growth to Dox", "format": "cell-based", "conditions": "K. pneumoniae", "excerpt": "as §1, §2, §3"}, "[4]": {"tested_on": "mixed-microbial communities of C. innocuum, Lactobacillus sp., E. faecalis, E. coli, and K. pneumoniae", "assay": "Mixed-microbial communities C1-C5 in continuous anaerobic batch culture exposed to Dox in generation 2", "format": "cell-based", "procedure": "FIG. 11A, FIG. 11B, FIG. 11C, FIG. 11D, and FIG. 11E. […] C1 began with even content of model strains of C innocuum^S, Lactobacillus^S sp., E. faecalisR, E. coli^R*, and K. pneumoniae^R*. C2 included less E. faecalis^R. C3 included less E. coli^R* . C4 included less K. pneumoniae^R*, and C5 included less E. coli^R* and K. pneumoniae^R*. The bacterial communities were grown in continuous batch culture and exposed to different concentrations Dox in generation 2.\nThe impacts of doxorubicin concentration and microbial community membership (and associated function) on the reduction of bioactive drug and associated microbial community resiliency were investigated in vitro in continuous anaerobic batch culture. Optical density measurements coupled with 16S rRNA gene amplicon sequencing analysis were used to estimate relative bacterial growth and a spectrophotometric assay was used to measure doxorubicin concentration. […] C1 began with even content of model strains of C. innocuum^S, Lactobacillus^S sp., E. faecalis^R, E. coli^R*, and K. pneumoniae^R*. C2 included less E. faecalis^R. C3 included less E. coli^R*. C4 included less K. pneumoniae^R*, and C5 included less E. coli^R* and K. pneumoniae^R*. The bacterial communities were grown in continuous batch culture and exposed to different concentrations Dox in generation 2.\nC1, C2, and C3, may have been enhanced in communities with greater bacterial diversity. (See FIGS. 11A, 11B, and 11C, and compare C1 to C2 and C3, at least for the medium concentration). […] (See FIG. 11D, C4). […] (See FIG. 11E, C5). […] (See FIGS. 11A, 11B, and 11C, C1, C2, and C3, generation 3). […] Thus, microbial community membership (and associated function) impacted the rate of doxorubicin transformation, which, in turn, may confer protective effects on drug-sensitive members in gut-microbial communities."}, "[5]": {"tested_on": "synthetic community of C. innocuum, E. coli, E. faecalis, and K. pneumoniae", "assay": "Mixed-batch culture of synthetic community treated with Dox in second generation", "format": "cell-based", "conditions": "Dox 100 μM added in second generation", "procedure": "We next performed a mixed-batch culture experiment. (See FIGS. 10A and 10B). We prepared a synthetic community by combining cultures of C. innocuum, E. coli, E. faecalis, and K. pneumoniae. We cultured the synthetic community and allowed community formation in a first generation. Subsequently, we added Dox at a concentration of 100 μM and monitored the growth of the members of the synthetic community after treatment/disturbance in a second generation. We then cultured the synthetic community though resiliency in a third generation.\n(See FIGS. 10B, middle panel)."}, "Clostridium innocuum": {"tested_on": "Clostridium innocuum", "assay": "Sensitivity of monoculture growth to Dox at various concentrations", "format": "cell-based", "conditions": "C. innocuum", "excerpt": "as §1, §2, §3\n(§4) (See FIGS. 7 and 8, respectively)."}, "Enterococcus faecalis [6]": {"tested_on": "Enterococcus faecalis", "assay": "Bacterial transformation of Dox, spectrophotometric assay of Dox concentration in culture / spent media", "excerpt": "(§5) A spectrophotometric assay to measure the concentration of active, unmodified, non-transformed doxorubicin was adopted.\n(§6) A spectrophotometric assay to measure the concentration of doxorubicin was adopted. […] Our spectrophotometric assays measure the concentration of active, unmodified, non-transformed doxorubicin (Dox) via absorption at λ480 versus concentration of Dox μM."}, "Lactobacillus [7]": {"tested_on": "Lactobacillus", "assay": "Growth of Dox-sensitive strain in 50% spent media of resistant strains", "format": "cell-based, Lactobacillus spp.", "procedure": "(§7) We previously observed that a Dox concentration as low as 10 μM can inhibit the growth of C. innocuum and Lactobacillus. (See FIGS. 7 and 8, respectively)."}, "Escherichia coli [8]": {"tested_on": "Escherichia coli", "assay": "Bacterial transformation of Dox, spectrophotometric assay of Dox concentration in culture / spent media", "excerpt": "as §5, §6\n(§8) We next tested the sensitivity or resistance of Escherichia coli, Klebsiella pneumonia, Enterococcus faecalis, Clostridium innocuum or Lactobacillus spp. to Dox at various concentrations. (See FIGS. 4-8). […] (See FIGS. 4 and 5, respectively)."}, "Klebsiella pneumoniae [9]": {"tested_on": "Klebsiella pneumoniae", "assay": "Bacterial transformation of Dox, spectrophotometric assay of Dox concentration in culture / spent media", "excerpt": "as §5, §6, §8"}, "Lactobacillus [10]": {"tested_on": "Lactobacillus", "assay": "Sensitivity of monoculture growth to Dox at various concentrations", "format": "cell-based, Lactobacillus spp.", "excerpt": "as §1, §2, §3, §4"}, "C. innocuum": {"tested_on": "C. innocuum", "assay": "Growth of Dox-sensitive strain in 50% spent media of resistant strains", "format": "cell-based, Clostridium innocuum", "procedure": "as §7"}, "K. pneumoniae": {"tested_on": "K. pneumoniae", "assay": "Modified resting cell assay with gentamicin", "format": "cell-based, Klebsiella pneumoniae", "conditions": "10 or 50 μm gentamicin, anaerobic, 37° C., 24 h, controls", "procedure": "FIG. 12A and FIG. 12B. Background gentamicin in culture media “fixes” K. pneumoniae to retain its biotransformation function despite thwarting cell growth. FIG. 12A: K. pneumoniae were first grown anaerobically at 37° C. in media in the presence of doxorubicin for 24 h (i.e., so initial biotransformation took place). Cultures were centrifugated into pellets, which were washed with buffer solution and resuspended in new media containing 100 μm doxorubicin and 0, 10, or 50 μm gentamicin. Inoculum was transferred to positive controls (i.e., with doxorubicin and same gentamicin treatment) and negative controls (i.e., contained doxorubicin, but no gentamicin). All samples were incubated anaerobically at 37° C. for 24 h and bacterial growth and final doxorubicin concentration (i.e., barplot) were determined. […] The two tubes on the far right are control growth media and doxorubicin-containing growth media (i.e., red color intensity corresponds to doxorubicin concentration in solution).\nIn a modified resting cell assay, we have shown that the biotransformation function can be harnessed without dependency on cell division. (See FIGS. 12A and 12B). Thus, it may be possible to “fix” K. pneumoniae in a form that enzymatically transforms Dox without presenting risk for in vivo colonization/growth. […]"}, "[11]": {"conditions": "spent media of E. coli and K. pneumoniae, Dox 4.1±2.5 μM and 4.4±0.9"}, "[12]": {"conditions": "spent media of E. faecalis, Dox 48.4±0.8 μM"}}, "data": [{"compound": "COc1cccc2c1C(=O)c1c(O)c3c(c(O)c1C2=O)C[C@@](O)(C(=O)CO)C[C@@H]3O[C@H]1C[C@H](N)[C@H](O)[C@H](C)O1", "note": "[Dox, doxorubicin]", "values": [{"measurement": "Resistance to Dox", "setting": "Escherichia coli [1]", "result": "resistant"}, {"measurement": "Resistance to Dox", "setting": "Enterococcus faecalis [2]", "result": "resistant to Dox"}, {"measurement": "Resistance to Dox", "setting": "Klebsiella pneumoniae [3]", "result": "resistant"}, {"measurement": "Transformation of Dox by bacterial communities", "setting": "[4]; communities containing E. coli and lacking K. pneumoniae (C4)", "result": "at a slower rate"}, {"measurement": "Transformation of doxorubicin by bacterial communities", "setting": "[4]; communities containing E. coli or K. pneumoniae", "result": "rapid transformation"}, {"measurement": "Transformation of Dox by bacterial communities", "setting": "[4]; communities without either K. pneumoniae or E. coli (C5)", "result": "not able to enzymatically transform Dox"}, {"measurement": "C. innocuum growth in mixed communities", "setting": "[4]; generation 2, medium and high concentrations of doxorubicin", "result": "not detected in all cultures"}, {"measurement": "Growth of Dox-sensitive C. innocuum in synthetic community", "setting": "[5]", "result": "grew only following doxorubicin transformation"}, {"measurement": "Growth after 25 hours", "setting": "Clostridium innocuum; Dox 100 μM", "result": "did not observe any growth"}, {"measurement": "Dox concentration at which delayed growth was observed", "setting": "Clostridium innocuum; monoculture", "result": "≤ 10", "unit": "µM"}, {"measurement": "Sensitivity to Dox", "setting": "Clostridium innocuum; monoculture", "result": "highly sensitive"}, {"measurement": "Change of Dox concentration in culture", "setting": "Enterococcus faecalis [6]; E. faecalis culture, absorption at λ480", "result": "did not reduce the Dox concentration in culture"}, {"measurement": "Dox concentration in the 50% spent media", "setting": "Enterococcus faecalis [6]; E. faecalis grown with initial 100 μM Dox", "result": "48.4±0.8"}, {"measurement": "Growth in 50% spent media", "setting": "Lactobacillus [7]; [11]", "result": "able to grow"}, {"measurement": "Growth in 50% spent media", "setting": "Lactobacillus [7]; [12]", "result": "unable to grow"}, {"measurement": "Change of Dox concentration in culture", "setting": "Escherichia coli [8]; E. coli culture, absorption at λ480", "result": "reduced Dox concentration in culture"}, {"measurement": "Dox concentration in the 50% spent media", "setting": "Escherichia coli [8]; E. coli grown with initial 250 μM Dox", "result": "4.1 ± 2.5", "unit": "µM"}, {"measurement": "Change of Dox concentration in culture", "setting": "Klebsiella pneumoniae [9]; K. pneumoniae culture, absorption at λ480", "result": "reduced Dox concentration in culture"}, {"measurement": "Dox concentration in the 50% spent media", "setting": "Klebsiella pneumoniae [9]; K. pneumoniae grown with initial 250 μM Dox", "result": "4.4±0.9"}, {"measurement": "Growth after 25 hours", "setting": "Lactobacillus [10]; Dox 100 μM", "result": "did not observe any growth"}, {"measurement": "Dox concentration at which delayed growth was observed", "setting": "Lactobacillus [10]; monoculture", "result": "≤ 10", "unit": "µM"}, {"measurement": "Sensitivity to Dox", "setting": "Lactobacillus [10]; monoculture", "result": "highly sensitive"}, {"measurement": "Growth in 50% spent media", "setting": "C. innocuum; [11]", "result": "able to grow"}, {"measurement": "Growth in 50% spent media", "setting": "C. innocuum; [12]", "result": "unable to grow"}]}, {"compound": "gentamicin", "values": [{"measurement": "Effect on K. pneumoniae growth", "setting": "K. pneumoniae", "result": "stalled K. pneumoniae growth"}]}]}
